Experimental data from PMC9077246, “Novel spirocyclic tranylcypromine derivatives as lysine-specific demethylase 1 (LSD1) inhibitors” (RSC Advances, 2018).
Where a name gives a salt, the structure may show the parent alone.

Tests used:
MAO-A [1] = target: T1, MAO-A (Homo sapiens, UniProt P21397); experiment: biochemical
T1 sequence (P21397 1-527): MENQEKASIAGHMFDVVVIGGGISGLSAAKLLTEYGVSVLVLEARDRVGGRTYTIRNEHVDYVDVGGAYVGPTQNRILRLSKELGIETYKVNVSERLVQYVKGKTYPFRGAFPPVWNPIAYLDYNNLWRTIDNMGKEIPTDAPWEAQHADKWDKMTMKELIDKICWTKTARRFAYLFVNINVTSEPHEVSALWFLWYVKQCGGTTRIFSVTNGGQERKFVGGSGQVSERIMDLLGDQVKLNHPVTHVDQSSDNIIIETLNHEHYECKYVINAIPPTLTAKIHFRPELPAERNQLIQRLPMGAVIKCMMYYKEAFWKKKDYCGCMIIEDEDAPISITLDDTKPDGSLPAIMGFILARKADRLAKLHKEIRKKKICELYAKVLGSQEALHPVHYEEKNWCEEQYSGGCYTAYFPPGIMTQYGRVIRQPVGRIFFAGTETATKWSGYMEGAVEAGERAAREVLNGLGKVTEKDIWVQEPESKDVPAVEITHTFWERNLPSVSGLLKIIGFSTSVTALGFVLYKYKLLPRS
Method: (§1) MAO-A and MAO-B enzymes were purchased from Sigma-Aldrich and the inhibition assay was tested with Promega MAO-Glo™ Assay kit according to the manufacturer's protocol. The luminescent signals were detected using Envision (PerkinElmer). The test was carried out in triplicate. And the IC50 data was calculated using the software GraphPad Prism 5, and chosen the equation “sigmoidal dose–response (variable slope)” for curve fitting.

[2] = target: T2, Recombinant human LSD1 (172–852 aa) (Homo sapiens, UniProt O60341); settings: 23a, 23b vs 21a, 21b
Method: (§2) LSD1 or LSD2 enzyme inhibition assay was performed with Lance Ultra LSD1 Histone H3-Lysine 4 Demethylase Assay kit (Perkin Elmer) according to the manufacturer's protocol. […] The test was carried out in triplicate. And the IC50 data was calculated using the software GraphPad Prism 5, and chosen the equation “sigmoidal dose–response (variable slope)” for curve fitting.

[3] = target: T2, Recombinant human LSD1 (172–852 aa); experiment: biochemical
Method: as §2

full-length LSD2 = target: T3, full-length LSD2 (Homo sapiens, UniProt Q8NB78); experiment: LSD2 inhibition assay (Lance Ultra kit, TR-FRET); format: biochemical
T3 sequence (Q8NB78 1-822): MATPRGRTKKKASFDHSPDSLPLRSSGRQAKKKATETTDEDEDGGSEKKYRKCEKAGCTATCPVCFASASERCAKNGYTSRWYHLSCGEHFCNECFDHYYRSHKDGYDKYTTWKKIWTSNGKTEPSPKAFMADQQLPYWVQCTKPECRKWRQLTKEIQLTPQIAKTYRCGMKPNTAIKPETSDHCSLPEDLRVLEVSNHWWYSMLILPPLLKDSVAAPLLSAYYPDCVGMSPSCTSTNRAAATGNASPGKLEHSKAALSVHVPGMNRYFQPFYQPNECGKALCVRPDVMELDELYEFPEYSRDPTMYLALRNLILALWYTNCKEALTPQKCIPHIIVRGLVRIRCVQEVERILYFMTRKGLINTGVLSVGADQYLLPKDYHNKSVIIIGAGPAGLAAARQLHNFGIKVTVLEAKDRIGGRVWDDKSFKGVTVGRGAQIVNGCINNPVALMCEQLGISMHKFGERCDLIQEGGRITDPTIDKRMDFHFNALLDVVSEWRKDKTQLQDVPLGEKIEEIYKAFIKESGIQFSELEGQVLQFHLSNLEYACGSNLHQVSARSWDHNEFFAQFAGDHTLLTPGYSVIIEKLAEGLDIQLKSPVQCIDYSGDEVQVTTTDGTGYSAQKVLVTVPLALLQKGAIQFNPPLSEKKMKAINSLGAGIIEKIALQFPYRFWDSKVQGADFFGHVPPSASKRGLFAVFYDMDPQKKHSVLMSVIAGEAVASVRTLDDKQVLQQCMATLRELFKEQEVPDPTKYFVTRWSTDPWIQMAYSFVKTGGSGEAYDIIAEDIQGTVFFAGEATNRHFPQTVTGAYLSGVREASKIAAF
Method: as §2

MAO-B = target: T4, MAO-B (Homo sapiens, UniProt P27338); experiment: biochemical
T4 sequence (P27338 1-520): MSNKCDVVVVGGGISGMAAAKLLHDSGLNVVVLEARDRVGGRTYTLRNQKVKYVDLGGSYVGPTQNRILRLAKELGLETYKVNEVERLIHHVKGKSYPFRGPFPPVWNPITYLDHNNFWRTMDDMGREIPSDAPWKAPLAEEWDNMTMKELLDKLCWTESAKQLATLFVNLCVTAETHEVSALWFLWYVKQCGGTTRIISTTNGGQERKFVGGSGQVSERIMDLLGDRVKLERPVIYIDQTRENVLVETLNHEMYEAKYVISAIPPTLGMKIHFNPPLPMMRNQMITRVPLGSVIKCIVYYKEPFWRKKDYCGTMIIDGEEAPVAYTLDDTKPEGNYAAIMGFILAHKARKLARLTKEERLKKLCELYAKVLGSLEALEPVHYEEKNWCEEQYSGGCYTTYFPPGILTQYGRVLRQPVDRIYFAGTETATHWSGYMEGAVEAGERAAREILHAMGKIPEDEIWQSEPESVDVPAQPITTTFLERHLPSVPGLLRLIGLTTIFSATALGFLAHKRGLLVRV
Method: as §1

MAO-A [4] = target: T1, MAO-A; settings: IC50 values for LSD1 vs. MAO-A
Method: as §1

[5] = MAO-A, IC50, Table 1, mean ± SEM, eight-point experiments, three independent experiments
[6] = MAO-B, IC50, Table 1, mean ± SEM, eight-point experiments, three independent experiments

| Compound | IC50 (MAO-A [1]; [5]) [nM] | fold less potent at LSD1 than the unsubstituted derivatives 21a and 21b [2] | IC50 [3] [nM] | IC50 (full-length LSD2) [nM] | IC50 (MAO-B; [6]) [nM] | selectivity index LSD1 vs. MAO-A in words (MAO-A [4]) | IC50 (MAO-A [1]; MAO-A IC50) [nM] | IC50 (MAO-B; MAO-B IC50) [nM] |
| --- | --- | --- | --- | --- | --- | --- | --- | --- |
| Fc1ncccc1CN[C@@H]1CC12CCc1ccccc12 (mixture of isomers) [Compound 23a, (2R)-N-((2-Fluoropyridin-3-yl)methyl)-2′,3′-dihydrospiro[cyclopropane-1,1′-inden]-2-amine] | 9700 ± 1500 | approximately 4 fold | 64 ± 1 | 13000 ± 3000 | 8200 ± 1500 | – | – | – |
| c1ccc(CN[C@H]2CC23CCc2ccccc23)cc1 (stereo in doubt) [Compound 13b, (2S)-N-Benzyl-2′,3′-dihydrospiro[cyclopropane-1,1′-inden]-2-amine] | 130 ± 10 | – | 110 ± 20 | 2000 ± 200 | 5100 ± 100 | low | – | – |
| COc1ccc(F)cc1CN[C@@H]1CC12CCc1ccccc12 (stereo in doubt) [Compound 17a, (2R)-N-(5-Fluoro-2-methoxybenzyl)-2′,3′-dihydrospiro[cyclopropane-1,1′-inden]-2-amine] | 920 ± 180 | – | 6.6 ± 1.5 | 800 ± 270 | 2300 ± 400 | – | – | – |
| COc1ccc(F)cc1CN[C@H]1CC12CCc1ccccc12 (stereo in doubt) [Compound 17b, (2S)-N-(5-Fluoro-2-methoxybenzyl)-2′,3′-dihydrospiro[cyclopropane-1,1′-inden]-2-amine] | 120 ± 10 | – | 17 ± 3 | 1700 ± 500 | 27000 ± 4000 | – | – | – |
| COc1cc(F)ccc1CN[C@@H]1CC12CCc1ccccc12 (stereo in doubt) [Compound 18a, (2R)-N-(4-Fluoro-2-methoxybenzyl)-2′,3′-dihydrospiro[cyclopropane-1,1′-inden]-2-amine] | 2200 ± 700 | – | 7.1 ± 1.3 | 660 ± 60 | 8700 ± 1100 | – | – | – |
| COc1cc(F)ccc1CN[C@H]1CC12CCc1ccccc12 (stereo in doubt) [Compound 18b, (2S)-N-(4-Fluoro-2-methoxybenzyl)-2′,3′-dihydrospiro[cyclopropane-1,1′-inden]-2-amine] | 90 ± 10 | – | 15 ± 3 | 490 ± 100 | 31000 ± 4000 | low | – | – |
| Fc1ncccc1CN[C@H]1CC12CCc1ccccc12 (stereo in doubt) [Compound 23b, (2S)-N-((2-Fluoropyridin-3-yl)methyl)-2′,3′-dihydrospiro[cyclopropane-1,1′-inden]-2-amine] | 9800 ± 800 | approximately 4 fold | 70 ± 3 | 8700 ± 800 | 29000 ± 4000 | – | – | – |
| N[C@@H]1CC12CCc1cc(-c3ccccc3)ccc12 (stereo in doubt) [Compound 28a, (2R)-5′-phenyl-2′,3′-dihydrospiro[cyclopropane-1,1′-inden]-2-amine hydrochloride] | – | – | 100 ± 10 | 94000 | – | – | 460 | 170 |
